Laboratory results: ChEMBL document CHEMBL3137667, “[Drug-induced liver injury; fourteenth updated edition of the bibliographic database of liver injuries and related drugs]” (Gastroenterol Clin Biol, 2004)

Columns and labels:
[1] = Highest frequency of moderate liver toxicity observed during clinical trials, expressed as a percentage. [column '% BIOL' in source]; conditions: human
[2] = Highest frequency of acute liver toxicity observed during clinical trials, expressed as a percentage. [column '% AIGUE' in source]; conditions: human
[3] = human, serum
[4] = human, serum; remark: listed apart in the source
[5] = human
[6] = human; remark: listed apart in the source
[7] = human; remark: listed apart in the source
[8] = human, serum, 4383 h
[9] = human; remark: listed apart in the source
[10] = human; remark: listed apart in the source
[11] = human; remark: listed apart in the source
[12] = human; remark: listed apart in the source
[13] = human; remark: listed apart in the source
[14] = human; remark: listed apart in the source
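Wherever Hepatotoxicity (association with vascular disease) is given: count of indexed literature references reporting vascular liver injury in humans, e.g. peliosis hepatitis, hepatic veno-occlusive disease or Budd-Chiari syndrome.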
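Wherever Hepatotoxicity (benign tumour) is given: value is a count of indexed literature references citing a benign tumour confirmed by histopathology.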
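Wherever Hepatotoxicity (choleostasis) is given: human cholestatic liver injury, shown by histopathology or by peak ALT or AST elevation over alkaline phosphatase ratio below 2, value counts indexed literature reports.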
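Wherever Hepatotoxicity (chronic liver disease) is given: chronic liver injury confirmed by histopathology or persistently raised serum aminotransferase activity beyond 6 months, value given as the count of indexed literature references.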
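Wherever Hepatotoxicity (cirrhosis) is given: value is a count of indexed literature references reporting cirrhosis confirmed by histopathology.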
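Wherever Hepatotoxicity (cytolytic) is given: human cytolytic liver injury, shown by histopathology or by a ratio above 5 of peak ALT or AST elevation to alkaline phosphatase elevation, value counts indexed references.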
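Wherever Hepatotoxicity (granulomatous hepatitis) is given: value is a count of indexed literature references reporting granulomatous liver disease confirmed by histopathology.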
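Wherever Hepatotoxicity (malignant tumour) is given: malignant tumour confirmed by histopathology, value gives the count of indexed literature references reporting it.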
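Wherever Hepatotoxicity (severe hepatitis) is given: human clinical data: severe hepatitis, meaning potentially life-threatening liver failure or clinically observed cases, the value counts how many indexed literature references report it.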
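Wherever Hepatotoxicity (steatosis) is given: steatosis confirmed by histopathology, value is the count of indexed references.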

Compound: CC(C)CN(C[C@@H](O)[C@H](Cc1ccccc1)NC(=O)O[C@H]1CCOC1)S(=O)(=O)c1ccc(N)cc1
- Hepatotoxicity (moderate) [1]: 0%
- Hepatotoxicity (acute) [2]: 10.7%
- Hepatotoxicity (moderate) [3]: 0
- Hepatotoxicity (acute) [4]: 3
- Hepatotoxicity (cytolytic) [5]: 3
- Hepatotoxicity (choleostasis) [6]: 0
- Hepatotoxicity (severe hepatitis) [7]: 0
- Hepatotoxicity (chronic liver disease) [8]: 0
- Hepatotoxicity (cirrhosis) [9]: 0
- Hepatotoxicity (granulomatous hepatitis) [10]: 0
- Hepatotoxicity (association with vascular disease) [11]: 0
- Hepatotoxicity (steatosis) [12]: 0
- Hepatotoxicity (malignant tumour) [13]: 0
- Hepatotoxicity (benign tumour) [14]: 0

Compound: CCOC(=O)[C@H](CCc1ccccc1)N[C@@H](C)C(=O)N1[C@H](C(=O)O)C[C@@H]2CCC[C@@H]21
- Hepatotoxicity (moderate) [1]: 1.3%
- Hepatotoxicity (acute) [2]: 0%
- Hepatotoxicity (moderate) [3]: 3
- Hepatotoxicity (acute) [4]: 1
- Hepatotoxicity (cytolytic) [5]: 0
- Hepatotoxicity (choleostasis) [6]: 0
- Hepatotoxicity (severe hepatitis) [7]: 0
- Hepatotoxicity (chronic liver disease) [8]: 0
- Hepatotoxicity (cirrhosis) [9]: 0
- Hepatotoxicity (granulomatous hepatitis) [10]: 0
- Hepatotoxicity (association with vascular disease) [11]: 0
- Hepatotoxicity (steatosis) [12]: 0
- Hepatotoxicity (malignant tumour) [13]: 0
- Hepatotoxicity (benign tumour) [14]: 0

Compound: C[C@@H](O)[C@H]1C(=O)N2C(C(=O)O)=C(S[C@@H]3CN[C@H](C(=O)Nc4cccc(C(=O)O)c4)C3)[C@H](C)[C@H]12
- Hepatotoxicity (moderate) [1]: 0%
- Hepatotoxicity (acute) [2]: 0%
- Hepatotoxicity (moderate) [3]: 4
- Hepatotoxicity (acute) [4]: 0
- Hepatotoxicity (cytolytic) [5]: 0
- Hepatotoxicity (choleostasis) [6]: 0
- Hepatotoxicity (severe hepatitis) [7]: 0
- Hepatotoxicity (chronic liver disease) [8]: 0
- Hepatotoxicity (cirrhosis) [9]: 0
- Hepatotoxicity (granulomatous hepatitis) [10]: 0
- Hepatotoxicity (association with vascular disease) [11]: 0
- Hepatotoxicity (steatosis) [12]: 0
- Hepatotoxicity (malignant tumour) [13]: 0
- Hepatotoxicity (benign tumour) [14]: 0

Compound: CC(=O)OCC1=C(C(=O)O)N2C(=O)[C@@H](NC(=O)CC#N)[C@H]2SC1
- Hepatotoxicity (moderate) [1]: 29.6%
- Hepatotoxicity (acute) [2]: 0%
- Hepatotoxicity (moderate) [3]: 1
- Hepatotoxicity (acute) [4]: 0
- Hepatotoxicity (cytolytic) [5]: 0
- Hepatotoxicity (choleostasis) [6]: 0
- Hepatotoxicity (severe hepatitis) [7]: 0
- Hepatotoxicity (chronic liver disease) [8]: 0
- Hepatotoxicity (cirrhosis) [9]: 0
- Hepatotoxicity (granulomatous hepatitis) [10]: 0
- Hepatotoxicity (association with vascular disease) [11]: 0
- Hepatotoxicity (steatosis) [12]: 0
- Hepatotoxicity (malignant tumour) [13]: 0
- Hepatotoxicity (benign tumour) [14]: 0

Compound: CC/C=C(\C(=O)N[C@@H]1C(=O)N2C(C(=O)OCOC(=O)C(C)(C)C)=C(COC(N)=O)CS[C@H]12)c1csc(N)n1
- Hepatotoxicity (moderate) [1]: 33.3%
- Hepatotoxicity (acute) [2]: 0%
- Hepatotoxicity (moderate) [3]: 53
- Hepatotoxicity (acute) [4]: 0
- Hepatotoxicity (cytolytic) [5]: 0
- Hepatotoxicity (choleostasis) [6]: 0
- Hepatotoxicity (severe hepatitis) [7]: 0
- Hepatotoxicity (chronic liver disease) [8]: 0
- Hepatotoxicity (cirrhosis) [9]: 0
- Hepatotoxicity (granulomatous hepatitis) [10]: 0
- Hepatotoxicity (association with vascular disease) [11]: 0
- Hepatotoxicity (steatosis) [12]: 0
- Hepatotoxicity (malignant tumour) [13]: 0
- Hepatotoxicity (benign tumour) [14]: 0

Compound: C[Si](C)(C)c1cccc(C(=O)C(F)(F)F)c1
- Hepatotoxicity (moderate) [1]: 0%
- Hepatotoxicity (acute) [2]: 0%
- Hepatotoxicity (moderate) [3]: 2
- Hepatotoxicity (acute) [4]: 0
- Hepatotoxicity (cytolytic) [5]: 0
- Hepatotoxicity (choleostasis) [6]: 0
- Hepatotoxicity (severe hepatitis) [7]: 0
- Hepatotoxicity (chronic liver disease) [8]: 0
- Hepatotoxicity (cirrhosis) [9]: 0
- Hepatotoxicity (granulomatous hepatitis) [10]: 0
- Hepatotoxicity (association with vascular disease) [11]: 0
- Hepatotoxicity (steatosis) [12]: 0
- Hepatotoxicity (malignant tumour) [13]: 0
- Hepatotoxicity (benign tumour) [14]: 0

Compound: N=C(N)NCCCCCCC(=O)NC(O)C(=O)NCCCCNCCCN (stereo not drawn)
- Hepatotoxicity (moderate) [1]: 3.6%
- Hepatotoxicity (acute) [2]: 0%
- Hepatotoxicity (moderate) [3]: 1
- Hepatotoxicity (acute) [4]: 0
- Hepatotoxicity (cytolytic) [5]: 0
- Hepatotoxicity (choleostasis) [6]: 0
- Hepatotoxicity (severe hepatitis) [7]: 0
- Hepatotoxicity (chronic liver disease) [8]: 0
- Hepatotoxicity (cirrhosis) [9]: 0
- Hepatotoxicity (granulomatous hepatitis) [10]: 0
- Hepatotoxicity (association with vascular disease) [11]: 0
- Hepatotoxicity (steatosis) [12]: 0
- Hepatotoxicity (malignant tumour) [13]: 0
- Hepatotoxicity (benign tumour) [14]: 0

Compound: CC(/C=C1\SC(=S)N(CC(=O)O)C1=O)=C\c1ccccc1
- Hepatotoxicity (moderate) [1]: 1%
- Hepatotoxicity (acute) [2]: 0%
- Hepatotoxicity (moderate) [3]: 2
- Hepatotoxicity (acute) [4]: 1
- Hepatotoxicity (cytolytic) [5]: 1
- Hepatotoxicity (choleostasis) [6]: 0
- Hepatotoxicity (severe hepatitis) [7]: 1
- Hepatotoxicity (chronic liver disease) [8]: 0
- Hepatotoxicity (cirrhosis) [9]: 0
- Hepatotoxicity (granulomatous hepatitis) [10]: 0
- Hepatotoxicity (association with vascular disease) [11]: 0
- Hepatotoxicity (steatosis) [12]: 0
- Hepatotoxicity (malignant tumour) [13]: 0
- Hepatotoxicity (benign tumour) [14]: 0

Compound: C[C@]12C=CC(=O)C=C1CC[C@@H]1[C@@H]2CC[C@@]2(C)[C@H]1CC[C@]2(C)O (stereo in doubt; form 2) [METHANDROSTENOLONE]
- Hepatotoxicity (acute) [4]: 1
- Hepatotoxicity (choleostasis) [6]: 1
- Hepatotoxicity (malignant tumour) [13]: 1
- Hepatotoxicity (benign tumour) [14]: 0

Compound: COc1cccc2c1C(=O)c1c(O)c3c(c(O)c1C2=O)C[C@@](O)(C(=O)CO)C[C@@H]3O[C@H]1C[C@H](N)[C@@H](O)[C@H](C)O1 [EPIRUBICIN]
- Hepatotoxicity (moderate) [1]: 6.4%
- Hepatotoxicity (moderate) [3]: 3
- Hepatotoxicity (acute) [4]: 0
- Hepatotoxicity (cytolytic) [5]: 0
- Hepatotoxicity (choleostasis) [6]: 0
- Hepatotoxicity (severe hepatitis) [7]: 0
- Hepatotoxicity (chronic liver disease) [8]: 0
- Hepatotoxicity (cirrhosis) [9]: 0
- Hepatotoxicity (granulomatous hepatitis) [10]: 0
- Hepatotoxicity (association with vascular disease) [11]: 0
- Hepatotoxicity (steatosis) [12]: 0
- Hepatotoxicity (malignant tumour) [13]: 0
- Hepatotoxicity (benign tumour) [14]: 0

Compound: CCn1cc(C(=O)O)c(=O)c2cc(F)c(N3CCN(C)CC3)cc21 [PEFLOXACIN]
- Hepatotoxicity (moderate) ([1]; Liver): 16.7%
- Hepatotoxicity (acute) ([2]; Liver): 0%
- Hepatotoxicity (moderate) [3]: 5
- Hepatotoxicity (acute) [4]: 0
- Hepatotoxicity (cytolytic) [5]: 0
- Hepatotoxicity (choleostasis) [6]: 0
- Hepatotoxicity (severe hepatitis) ([7]; Liver): 0
- Hepatotoxicity (chronic liver disease) [8]: 0
- Hepatotoxicity (cirrhosis) [9]: 0
- Hepatotoxicity (granulomatous hepatitis) [10]: 0
- Hepatotoxicity (steatosis) [12]: 0
- Hepatotoxicity (malignant tumour) [13]: 0
- Hepatotoxicity (benign tumour) [14]: 0

Compound: NC(=O)c1csc([C@@H]2O[C@H](CO)[C@@H](O)[C@H]2O)n1 [TIAZOFURIN]
- Hepatotoxicity (moderate) [1]: 62.5%
- Hepatotoxicity (acute) [2]: 0%
- Hepatotoxicity (moderate) [3]: 7
- Hepatotoxicity (cytolytic) [5]: 0
- Hepatotoxicity (choleostasis) [6]: 0
- Hepatotoxicity (severe hepatitis) [7]: 0
- Hepatotoxicity (chronic liver disease) [8]: 0
- Hepatotoxicity (cirrhosis) [9]: 0
- Hepatotoxicity (granulomatous hepatitis) [10]: 0
- Hepatotoxicity (association with vascular disease) [11]: 0
- Hepatotoxicity (steatosis) [12]: 0
- Hepatotoxicity (malignant tumour) [13]: 0
- Hepatotoxicity (benign tumour) [14]: 0

Compound: CARBETIMER
- Hepatotoxicity (acute) [2]: 0%
- Hepatotoxicity (moderate) [3]: 2
- Hepatotoxicity (acute) [4]: 0
- Hepatotoxicity (cytolytic) [5]: 0
- Hepatotoxicity (choleostasis) [6]: 0
- Hepatotoxicity (severe hepatitis) [7]: 0
- Hepatotoxicity (chronic liver disease) [8]: 0
- Hepatotoxicity (cirrhosis) [9]: 0
- Hepatotoxicity (granulomatous hepatitis) [10]: 0
- Hepatotoxicity (association with vascular disease) [11]: 0
- Hepatotoxicity (steatosis) [12]: 0
- Hepatotoxicity (malignant tumour) [13]: 0
- Hepatotoxicity (benign tumour) [14]: 0
